Data taken from patent US20060089410A1, “Combination of chemotherapeutic drugs for increasing antitumor activity” (Titan Pharmaceuticals, Inc., priority 2002, published 2006).

Tests used:
c-Myc oncogene = c-Myc oncogene expression by RT-PCR, T24 cells; format: cell-based, human; conditions: for c-Myc oncogene expression: 96 hour exposure
Description: (§1) T24 Bladder transitional carcinoma cells, Calu-6 anaplastic lung carcinoma cells, and SK-MES-1 squamous lung cell carcinoma cell cultures were purchased from the American Type Culture Collection (Manassas, Va.). All cell lines were cultured in RPMI-1640 with 10% fetal calf serum. For culture in microtiter dishes, cells were plated at a density of 10^4 cells/well and incubated at 37° C., 5% CO2 overnight.
(§2) After overnight incubation, drugs were added to wells in quadruplicate and incubated for 6 to 96 hours in the presence or absence of the oxyalkylene containing compound. […] the media was removed, fresh media were added with cytotoxic drug, and the cultures were incubated for another 6 hours.
Tumor cell culture mRNA was isolated by standard methods, and RT-PCR was conducted to determine levels of c-Myc oncogene expression. The c-Myc primer pair used for RT-PCR cycling was:
The c-Myc primer pair was cycled by the following program: 95° C. for 3 min., then 30 cycles of (95° C. for 1 min., then 55° C. for 1 min., then 72° C. for 1 min.) followed by holding temperature at 72° C. for 7 min. before ramping temperature to 4° C. Samples were analyzed quantitatively by 1% agarose gel electrophoresis and gel densitometry.

[1] = tested on: T24 Bladder transitional carcinoma cells; test: Crystal violet microtiter assay, Pivanex then cytotoxic drug, T24; format: cell-based, human
Description: as §1, §2
The wells were then washed and medium without drug was added to each well. Microtiter plates were subsequently incubated for an additional 3 days before cell density was determined by a Crystal Violet Assay. Some cultures were alternatively fixed in methanol and stained with hematoxylin and eosin (H&E) stain for 5 minutes prior to microphotography.
PIVANEX (pivaloyloxymethyl butyrate) was obtained from Titan Pharmaceuticals Inc. (South San Francisco, Calif.) and was admixed with 0.05% Intralipid™ (Fresenius Kabi, Clayton, N.C.) prior to addition to culture media. The cytotoxic drugs gemcitabine (Gemzar; Eli Lilly and Co., Indianapolis, Ind.), cisplatin (Platinol, Bristol-Myers Squibb Co., Princeton, N.J.), paclitaxel (Taxol; Bristol-Myers Squibb Co., Princeton, N.J.), and docetaxel (Taxotere, Aventis Pharmaceuticals Products, Inc., Bridgewater, N.J.) were studied with PIVANEX.
Cells in microtiter wells were rinsed with PBS and fixed in two volumes of 100% cold methanol for 5 minutes. One volume of 0.5% crystal violet in 20% methanol was added and the attached cells stained for 10 minutes. The cells were then washed and crystal violet was eluted with 0.1 N sodium citrate buffer and read on an ELISA plate reader at 490 nm.

H522 NSCLC cell line = test: MTS growth inhibition assay, sequencing of Pivanex and docetaxel, H522; format: cell-based, human; conditions: after 24 hour exposure
Description: Human Non-Small Cell Lung Carcinoma Cell Lines, H522 and NCI-H23, were evaluated for growth inhibitory activity of Pivanex, alone and in combination with the standard chemotherapeutic agent, docetaxel. Cells were treated for three days with Pivanex followed by 24 hours of exposure to docetaxel or the cells were treated for 24 hours with docetaxel followed by three days of exposure to Pivanex. The cell growth inhibition was judged at the end of the 4-day experiments by a standard staining technique using MTS tetrazolium vital stain. […]
Exponentially growing cells were harvested with trypsin (0.05%)/EDTA (0.02%) and re-suspended in fresh medium containing 10% FBS. […] Absorbance was documented on a Dynex HD microplate reader at a wavelength of 490 nm. IC50 values were determined by using the Prism® GraphPad software from 3 different tests, each of which involved 4 replicates for each dose determination. The data are presented as percent growth inhibition, where 0% represents the mean value in wells to which only vehicle (0.1% DMSO) was added and was calculated as follows: % Growth Inhibition=(1−(ODtest/ODvehicle))×100 where ODtest is the optical density of the tested sample, OD vehicle is the optical density of the vehicle in which each respected drug is dissolved. […]

tumor cells = test: Growth inhibitory and cytotoxic effects on tumor cells in tissue culture; format: cell-based; conditions: tumor cell line dependent
Description: Testing of a pivaloyloxymethyl butyrate dose and schedule interactions with chemotherapy in tissue culture was undertaken to facilitate clinical planning.
(§3) The observed morphologic changes consistent with a more differentiated phenotype prompted investigation of oncogene expression following exposure to pivaloyloxymethyl butyrate.

p53 = test: Oncogene expression after exposure of tumor cells; format: cell-based; conditions: 72-hour exposure, 10-50 μM
Description: as §3

A549 lung cancer cells = test: Pretreatment followed by various chemotherapeutic agents, A549; format: cell-based, human
Description: Human T24 bladder and A549 lung cancer cells were exposed to increasing concentrations of pivaloyloxymethyl butyrate for 6 or 72 hours followed by exposure to various chemotherapeutic agents. […] At higher dosages the increase in cytotoxicity following the sequential regimen would show after a shorter induction period with pivaloyloxymethyl butyrate as discussed above.

[2] = Preliminary Phase I/II clinical trials, lung cancer and refractory malignancies metastatic to the liver; format: in vivo, human
[3] = Biological evaluations (myeloablation, myelosuppression)
Description: Pivaloyloxymethyl butyrate functions as a differentiating agent with activity against multiple tumor cell types in culture.

**Q.** Which results are given for `CCCC(=O)OCOC(=O)C(C)(C)C` [Pivanex, pivaloyloxymethyl butyrate]?
**A.** c-Myc oncogene expression (c-Myc oncogene; Pivanex 10 μM): 760 PCR units; c-Myc oncogene expression (c-Myc oncogene; Pivanex 25 μM): 972 PCR units; c-Myc oncogene expression (c-Myc oncogene; Pivanex 50 μM): 966 PCR units; c-Myc oncogene expression (c-Myc oncogene; Pivanex 100 μM): 640 PCR units; c-Myc oncogene expression (c-Myc oncogene; Pivanex 200 μM): 560 PCR units; concentrations (as low as) that decreased the expression of c-Myc oncogene (c-Myc oncogene; T-24, 96 hours in culture): 10 to 50 µM; T24 cancer cell viability (A^490 Absorbance) ([1]; Pivanex 10 μM, cisplatin 0 μM): 0.48; T24 cancer cell viability (A^490 Absorbance) ([1]; Pivanex 25 μM, gemcitabine 0 nM): 0.479; T24 cancer cell viability (A^490 Absorbance) ([1]; Pivanex 50 μM, cisplatin 0 μM): 0.422; T24 cancer cell viability (A^490 Absorbance) ([1]; Pivanex 50 μM, gemcitabine 0 nM): 0.455; T24 cancer cell viability (A^490 Absorbance) ([1]; Pivanex 100 μM, gemcitabine 0 nM): 0.414; T24 cancer cell viability (A^490 Absorbance) ([1]; Pivanex 200 μM, gemcitabine 0 nM): 0.41; cell growth with agent alone (H522 NSCLC cell line): steep increase in H522 cell growth; concentrations at which cytotoxicity was observed (tumor cells; 6-hour exposure): greater than 125 μM; concentrations at which cytotoxicity was observed (tumor cells; 72 hours of treatment): greater than 25 μM; p53 expression (p53): significant suppression; enhancement of cytotoxicity of chemotherapeutic agents (A549 lung cancer cells; A549, 6-hour pretreatment, lower doses): did not enhance cytotoxicity; enhancement of cytotoxicity of chemotherapeutic agents (A549 lung cancer cells; A549, 72-hour pretreatment): did enhance drug-induced cytotoxicity; tolerability [2]: well tolerated; myeloablation / myelosuppression [3]: non-myeloablative and non-myelosuppressive
